Experimental findings from ChEMBL document CHEMBL3727346, “6-(pyridinyl)-4-pyrimidone derivates as tau protein kinase 1 inhibitors” (2011) are described below.

Active and inactive are the calls of the source. No rule for the calls is given here.

The assay concerns the target Glycogen synthase kinase-3 beta splice variant X1 (Bos taurus) (UniProt A0A059UE90). Briefly: Inhibition of bovine cerebral TPK1 assessed as reduction in P-GS1 phosphorylation using [32gammaP]ATP incubated for 2 hrs by liquid scintillation counting method.
Turning to `Cn1c(N2CCO[C@@H](c3ccc(NC4CCCCC4)cc3)C2)nc(-c2ccncc2F)cc1=O`, the inhibition result was “Active”.

With `Cn1c(N2CCO[C@@H](c3ccc(NS(C)(=O)=O)cc3)C2)nc(-c2ccncc2F)cc1=O`, the inhibition result is “Active”.

For `Cn1c(N2CCN[C@@H](c3ccc(-c4ccc(C#N)cc4)cc3)C2)nc(-c2ccncc2F)cc1=O`, the inhibition entry is “Active”.

With `C[C@@H]1CN(c2ccc([C@H]3CN(c4nc(-c5ccncc5F)cc(=O)n4C)CCO3)cc2)C[C@H](C)O1`, the inhibition entry was “Active”.

As for `Cn1c(N2CCO[C@@H](c3ccc(N4CC[C@H](N5CCCCC5)C4)cc3)C2)nc(-c2ccncc2F)cc1=O`, the inhibition result is “Active”.

For the compound `Cn1c(N2CCN[C@@H](c3ccc(-c4ccc(Cl)cc4Cl)cc3)C2)nc(-c2ccncc2F)cc1=O`, the inhibition entry is “Active”.

On to `Cn1c(N2CCN[C@@H](c3ccc(N4CC[C@H](N5CCCC5)C4)cc3)C2)nc(-c2ccncc2F)cc1=O`, for which the inhibition entry is “Active”.

In the case of `CC1CC1C(=O)Nc1ccc([C@H]2CN(c3nc(-c4ccncc4F)cc(=O)n3C)CCO2)cc1` (some centres not stated), the inhibition entry was “Active”.

As for `Cn1c(N2CCN[C@@H](c3ccc(-c4ccc(C(F)(F)F)cc4)cc3)C2)nc(-c2ccncc2F)cc1=O`, the inhibition entry is “Active”.

As to `COc1cc(Cl)ccc1[C@H]1CN(c2nc(-c3ccncc3F)cc(=O)n2C)CCO1`, the inhibition entry is “Active”.

Turning to `Cn1c(N2CCO[C@@H](c3ccc(N4CC[C@@H](N5CCOCC5)C4)cc3)C2)nc(-c2ccncc2F)cc1=O`, the inhibition result is “Active”.

Consider `CN(C)[C@H]1CCN(c2ccc([C@H]3CN(c4nc(-c5ccncc5F)cc(=O)n4C)CCN3)cc2)C1`, for which the inhibition result was “Active”.

Take `CN(C)C(=O)c1ccc([C@H]2CN(c3nc(-c4ccncc4F)cc(=O)n3C)CCO2)cc1`: the inhibition entry was “Active”.

With `CN(C)CCCOc1ccc([C@H]2CN(c3nc(-c4ccncc4F)cc(=O)n3C)CCO2)cc1`, the inhibition result was “Active”.

In the case of `Cn1c(N2CCO[C@@H](c3ccc(N(C(=O)c4ccccc4)C4CCCCC4)cc3)C2)nc(-c2ccncc2F)cc1=O`, the inhibition result was “Active”.

Take `CCN(CC)CCCOc1ccc([C@H]2CN(c3nc(-c4ccncc4F)cc(=O)n3C)CCO2)cc1`: the inhibition result is “Active”.

Turning to `Cn1c(N2CCO[C@@H](c3ccc(NC(=O)c4ccccc4)cc3)C2)nc(-c2ccncc2F)cc1=O`, the inhibition result is “Active”.

Regarding `CN(c1ccc([C@H]2CN(c3nc(-c4ccncc4F)cc(=O)n3C)CCO2)cc1)C1CCOCC1`, the inhibition result is “Active”.

As for `C[C@@H]1CN(c2ccc([C@H]3CN(c4nc(-c5ccncc5F)cc(=O)n4C)CCN3)cc2)C[C@H](C)N1`, the inhibition entry was “Active”.

Turning to `Cn1c(N2CCO[C@@H](c3ccc(N(CCO)C4CCCCC4)cc3)C2)nc(-c2ccncc2F)cc1=O`, the inhibition entry was “Active”.

Take `Cn1c(N2CCO[C@@H](c3ccc(N(C4CCCCC4)S(=O)(=O)c4ccccc4)cc3)C2)nc(-c2ccncc2F)cc1=O`: the inhibition entry is “Active”.

Consider `Cn1c(N2CCO[C@@H](c3ccc(OC4CCN(C(=O)c5ccccc5)CC4)cc3)C2)nc(-c2ccncc2F)cc1=O`, for which the inhibition result is “Active”.

In the case of `Cn1c(N2CCO[C@@H](c3ccc(NC(=O)C(C)(C)O)cc3)C2)nc(-c2ccncc2F)cc1=O`, the inhibition entry is “Active”.

With `CC(=O)N(C)[C@@H]1CCN(c2ccc([C@H]3CN(c4nc(-c5ccncc5F)cc(=O)n4C)CCO3)cc2)C1`, the inhibition entry was “Active”.

Take `Cn1c(N2CCOC(c3cccc(-c4cncnc4)c3)C2)nc(-c2ccncc2F)cc1=O` (racemic): the inhibition result was “Active”.

As for `Cn1c(N2CCN[C@@H](c3ccc(N4CC[C@H](C#N)C4)cc3)C2)nc(-c2ccncc2F)cc1=O`, the inhibition entry is “Active”.

Regarding `COc1ccc([C@H]2CN(c3nc(-c4ccncc4F)cc(=O)n3C)CCO2)cc1`, the inhibition entry was “Active”.

In the case of `Cn1c(N2CCO[C@@H](c3ccc(NC(=O)C4CC4)cc3)C2)nc(-c2ccncc2F)cc1=O`, the inhibition entry was “Active”.

Turning to `Cn1c(N2CCN[C@@H](c3ccc(N4CCCC4)cc3)C2)nc(-c2ccncc2F)cc1=O`, the inhibition entry was “Active”.

For `COc1ccc(NS(C)(=O)=O)cc1[C@H]1CN(c2nc(-c3ccncc3F)cc(=O)n2C)CCO1`, the inhibition result was “Active”.

Turning to `Cn1c(N2CCO[C@@H](c3ccc(N4CCCNC4=O)cc3)C2)nc(-c2ccncc2F)cc1=O`, the inhibition result was “Active”.

For the compound `Cn1c(N2CCO[C@@H](c3ccc(N4CCC(O)CC4)cc3)C2)nc(-c2ccncc2F)cc1=O`, the inhibition entry was “Active”.

Consider `Cn1c(N2CCO[C@@H](c3ccc(NC(=O)C4CCCC4)cc3)C2)nc(-c2ccncc2F)cc1=O`, for which the inhibition result was “Active”.

Regarding `Cn1c(N2CCO[C@@H](c3ccc(N4CC(O)C4)cc3)C2)nc(-c2ccncc2F)cc1=O`, the inhibition result is “Active”.

Take `Cn1c(N2CCOC(c3ccc4c(c3)CC(=O)N4)C2)nc(-c2ccncc2F)cc1=O` (racemic): the inhibition entry is “Active”.

As to `COc1ccc(C(C)(C)O)cc1[C@H]1CN(c2nc(-c3ccncc3F)cc(=O)n2C)CCO1`, the inhibition result was “Active”.

With `CN(C)C1CCN(c2ccc([C@H]3CN(c4nc(-c5ccncc5F)cc(=O)n4C)CCN3)cc2)CC1`, the inhibition result is “Active”.

On to `Cn1c(N2CCO[C@@H](c3ccc(C(C)(C)O)cc3)C2)nc(-c2ccncc2F)cc1=O`, for which the inhibition result is “Active”.

For the compound `Cn1c(N2CCO[C@@H](c3ccc(OC4CCCC4)cc3)C2)nc(-c2ccncc2F)cc1=O`, the inhibition entry is “Active”.

For `COc1ccc(-c2ccc([C@H]3CN(c4nc(-c5ccncc5F)cc(=O)n4C)CCN3)cc2)c(OC)c1`, the inhibition entry is “Active”.

Turning to `Cn1c(N2CCO[C@@H](c3cccc(NS(C)(=O)=O)c3)C2)nc(-c2ccncc2F)cc1=O`, the inhibition result was “Active”.

For the compound `Cn1c(N2CCN[C@@H](c3ccc(-c4ccc(N)cc4)cc3)C2)nc(-c2ccncc2F)cc1=O`, the inhibition result was “Active”.

`Cn1c(N2CCO[C@@H](c3ccc(N(C(=O)C4CC4)C4CCCCC4)cc3)C2)nc(-c2ccncc2F)cc1=O`: the inhibition entry is “Active”.

Regarding `Cn1c(N2CCO[C@@H](c3ccc(OCCN4CCN(C(=O)c5ccccc5)CC4)cc3)C2)nc(-c2ccncc2F)cc1=O`, the inhibition result was “Active”.

Regarding `CCc1nc(-c2ccc([C@H]3CN(c4nc(-c5ccncc5F)cc(=O)n4C)CCN3)cc2)no1`, the inhibition entry is “Active”.

`Cn1c(N2CCO[C@@H](c3ccc(NC(=O)CN4CCOCC4)cc3)C2)nc(-c2ccncc2F)cc1=O`: the inhibition entry is “Active”.

With `Cn1c(N2CCO[C@@H](c3ccc(Nc4ccncc4)cc3)C2)nc(-c2ccncc2F)cc1=O`, the inhibition entry was “Active”.

As for `Cn1c(N2CCO[C@@H](c3ccc(OCCCN4CCCCC4)cc3)C2)nc(-c2ccncc2F)cc1=O`, the inhibition result is “Active”.

As to `Cn1c(N2CCO[C@@H](c3ccc(OCCN4CCCC4)cc3)C2)nc(-c2ccncc2F)cc1=O`, the inhibition result is “Active”.

As for `Cn1c(N2CCO[C@@H](c3ccc(F)cc3)C2)nc(-c2ccncc2F)cc1=O`, the inhibition result is “Active”.

Consider `Cn1c(N2CCO[C@@H](c3ccc(Nc4ccccn4)cc3)C2)nc(-c2ccncc2F)cc1=O`, for which the inhibition entry is “Active”.

On to `CN1CCN(CCOc2ccc([C@H]3CN(c4nc(-c5ccncc5F)cc(=O)n4C)CCO3)cc2)CC1`, for which the inhibition result is “Active”.

On to `CN(c1ccc([C@H]2CN(c3nc(-c4ccncc4F)cc(=O)n3C)CCO2)cc1)C1C2CC3CC(C2)CC1C3` (some centres not stated), for which the inhibition entry was “Active”.

As for `CN1CCN(CCCOc2ccc([C@H]3CN(c4nc(-c5ccncc5F)cc(=O)n4C)CCO3)cc2)CC1`, the inhibition result is “Active”.

On to `CN1CCN(c2ccc([C@H]3CN(c4nc(-c5ccncc5F)cc(=O)n4C)CCN3)cc2)CC1`, for which the inhibition entry is “Active”.

Turning to `Cn1c(N2CCN[C@@H](c3ccc(N4CCC(O)C4)cc3)C2)nc(-c2ccncc2F)cc1=O` (some centres not stated), the inhibition entry is “Active”.

In the case of `Cn1c(N2CCNC(c3ccc(N4CCN(C(=O)OCc5ccccc5)CC4)cc3)C2)nc(-c2ccncc2F)cc1=O` (configuration not stated), the inhibition entry is “Active”.

For `Cn1c(N2CCO[C@@H](c3ccc(NS(=O)(=O)c4ccccc4)cc3)C2)nc(-c2ccncc2F)cc1=O`, the inhibition entry is “Active”.

Consider `Cn1c(N2CCO[C@@H](c3ccc(N4CC[C@H](N5CCCC5)C4)cc3)C2)nc(-c2ccncc2F)cc1=O`, for which the inhibition entry was “Active”.

As to `Cn1c(N2CCO[C@@H](c3ccc(NC(=O)N4CCOCC4)cc3)C2)nc(-c2ccncc2F)cc1=O`, the inhibition entry was “Active”.

For the compound `CNC(=S)Nc1ccc([C@H]2CN(c3nc(-c4ccncc4F)cc(=O)n3C)CCO2)cc1`, the inhibition result is “Active”.

Turning to `Cn1c(N2CCO[C@@H](c3ccc(O)cc3)C2)nc(-c2ccncc2F)cc1=O`, the inhibition entry was “Active”.

In the case of `Cn1c(N2CCO[C@@H](c3ccc(NC4CCCC4)cc3)C2)nc(-c2ccncc2F)cc1=O`, the inhibition entry is “Active”.

On to `CC(=O)N(C)c1ccc([C@H]2CN(c3nc(-c4ccncc4F)cc(=O)n3C)CCO2)cc1`, for which the inhibition entry was “Active”.

For `COc1ccc([C@H]2CN(c3nc(-c4ccncc4F)c(Br)c(=O)n3C)CCO2)cc1`, the inhibition result is “Active”.

Turning to `Cn1c(N2CCO[C@@H](c3ccc(N4CCN(CCO)CC4)cc3)C2)nc(-c2ccncc2F)cc1=O`, the inhibition result is “Active”.

In the case of `Cn1c(N2CCO[C@@H](c3ccc(N4CCNC4=O)cc3)C2)nc(-c2ccncc2F)cc1=O`, the inhibition entry is “Active”.

Turning to `C[C@@H]1CN(c2ccc([C@H]3CN(c4nc(-c5ccncc5F)cc(=O)n4C)CCO3)cc2)C[C@H](C)N1`, the inhibition entry is “Active”.

Regarding `CCN(CC)Cc1ccc([C@H]2CN(c3nc(-c4ccncc4F)cc(=O)n3C)CCO2)cc1`, the inhibition result was “Active”.

For `CSc1ccc([C@H]2CN(c3nc(-c4ccncc4F)cc(=O)n3C)CCO2)cc1`, the inhibition entry is “Active”.

With `COc1ccc(C2(O)CCN(C)CC2)cc1[C@H]1CN(c2nc(-c3ccncc3F)cc(=O)n2C)CCO1`, the inhibition result was “Active”.

Take `Cc1cc(N2CCN(c3ccc(C4CN(c5nc(-c6ccncc6F)cc(=O)n5C)CCO4)cc3)CC2)n(-c2ccccc2)n1` (configuration not stated): the inhibition entry is “Active”.
